pIC50: −log10 of the molar value. Like-named read-outs stand apart in the source and are kept apart here.
How the values were obtained:
[1] = biological target: T1, hFSP1 (human FSP1) (Homo sapiens, UniProt Q9BRQ8); assay: resazurin reduction, fluorescence; assay type: biochemical
T1 construct: gene AIFM2; recombinant from E. coli BL21, Ni-NTA purified (His tag implied); HA-tagged in Pfa1 cells for cell assays; cDNA carries C>T:1008 (probably silent)
T1 sequence (Q9BRQ8 2-373): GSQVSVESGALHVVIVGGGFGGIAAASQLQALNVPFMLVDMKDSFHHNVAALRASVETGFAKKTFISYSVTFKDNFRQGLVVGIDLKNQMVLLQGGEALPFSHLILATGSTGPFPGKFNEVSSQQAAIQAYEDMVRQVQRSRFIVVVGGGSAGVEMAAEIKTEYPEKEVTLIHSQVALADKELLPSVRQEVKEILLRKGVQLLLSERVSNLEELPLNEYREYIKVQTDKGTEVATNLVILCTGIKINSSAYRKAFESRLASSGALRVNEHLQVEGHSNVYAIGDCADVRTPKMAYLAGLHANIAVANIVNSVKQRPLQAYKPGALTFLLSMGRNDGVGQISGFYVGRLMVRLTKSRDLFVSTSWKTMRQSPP

[2] = biological target: T2, mFsp1 (mouse FSP1) (Mus musculus, UniProt Q8BUE4); assay: resazurin reduction, fluorescence; assay type: biochemical
T2 construct: gene Aifm2; recombinant from E. coli BL21, Ni-NTA purified; HA-tagged, codon-optimized in Pfa1 cells for cell assays
T2 sequence (Q8BUE4 2-373): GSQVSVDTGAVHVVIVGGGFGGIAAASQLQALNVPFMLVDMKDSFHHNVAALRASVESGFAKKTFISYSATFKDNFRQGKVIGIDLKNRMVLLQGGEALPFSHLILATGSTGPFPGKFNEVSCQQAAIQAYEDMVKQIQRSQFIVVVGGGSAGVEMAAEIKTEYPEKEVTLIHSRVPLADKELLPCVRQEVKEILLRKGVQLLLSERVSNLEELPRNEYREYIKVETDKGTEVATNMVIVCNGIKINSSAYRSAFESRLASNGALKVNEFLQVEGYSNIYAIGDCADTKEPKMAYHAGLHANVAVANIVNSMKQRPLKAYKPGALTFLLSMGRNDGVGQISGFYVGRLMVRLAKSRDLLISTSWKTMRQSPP
Excerpt: resazurin reduction, fluorescence on mFsp1 (mouse FSP1) | both hFSP1 and mFsp1 enzyme activity are equally sensitive to viFSP1

Q: Cc1ccc(-c2c(C#N)c(N)n3c(nc4ccccc43)c2C#N)cc1 [iFSP1] was tested. Which IC50 ([1]; […] NADH, […] resazurin, TBS, […] C) did it give?
A: dose–response curves for the effect of iFSP1 on the activity of FSP1 mutants

Q: Which results are given for COc1ccc(N2CC(=O)C(c3nc(C)cs3)=C2N)c(OC)c1 [viFSP1]?
A: pIC50 [2]: 7.08; pIC50 ([1]; read-out: IC50): 7.47
